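Here, GI50 denotes the concentration required for 50% inhibition of growth. TGI is the concentration that stops growth completely.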
Legend:
Assay in all cases: growth of human tumour cells (NCI), 384-well format
CAKI-1 renal = test system: CAKI-1 renal
HL-60(TB) leukemia = test system: HL-60(TB) leukemia
MDA-MB-468 breast = test system: MDA-MB-468 breast
NCI-H23 lung = test system: NCI-H23 lung
RPMI-8226 leukemia = test system: RPMI-8226 leukemia
A498 renal = test system: A498 renal
A549 NSCLC = test system: A549 NSCLC
ACHN renal = test system: ACHN renal
BT-549 breast = test system: BT-549 breast
COLO 205 colon = test system: COLO 205 colon
DU-145 prostate = test system: DU-145 prostate
EKVX NSCLC = test system: EKVX NSCLC
HCC-2998 colon = test system: HCC-2998 colon
HCT-116 colon = test system: HCT-116 colon
HCT-15 colon = test system: HCT-15 colon
HOP-62 NSCLC = test system: HOP-62 NSCLC
HOP-92 NSCLC = test system: HOP-92 NSCLC
HS 578T breast = test system: HS 578T breast
HT29 colon = test system: HT29 colon
IGROV1 ovarian = test system: IGROV1 ovarian
KM12 colon = test system: KM12 colon
LOX IMVI melanoma = test system: LOX IMVI melanoma
M14 melanoma = test system: M14 melanoma
MALME-3M melanoma = test system: MALME-3M melanoma
MCF7 breast = test system: MCF7 breast
MDA-MB-231 breast = test system: MDA-MB-231 breast
MDA-MB-435 melanoma = test system: MDA-MB-435 melanoma
MOLT-4 leukemia = test system: MOLT-4 leukemia
NCI-H226 lung = test system: NCI-H226 lung
NCI-H322M lung = test system: NCI-H322M lung
NCI-H460 NSCLC = test system: NCI-H460 NSCLC
NCI-H522 lung = test system: NCI-H522 lung
NCI/ADR-RES ovarian = test system: NCI/ADR-RES ovarian
OVCAR-3 ovarian = test system: OVCAR-3 ovarian
OVCAR-4 ovarian = test system: OVCAR-4 ovarian
OVCAR-5 ovarian = test system: OVCAR-5 ovarian
OVCAR-8 ovarian = test system: OVCAR-8 ovarian
PC-3 prostate = test system: PC-3 prostate
RXF 393 renal = test system: RXF 393 renal
SF-268 CNS = test system: SF-268 CNS
SF-295 CNS = test system: SF-295 CNS
SF-539 CNS = test system: SF-539 CNS
SK-MEL-28 melanoma = test system: SK-MEL-28 melanoma
SK-MEL-5 melanoma = test system: SK-MEL-5 melanoma
SK-OV-3 ovarian = test system: SK-OV-3 ovarian
SN12C renal = test system: SN12C renal
SNB-19 CNS = test system: SNB-19 CNS
SNB-75 CNS = test system: SNB-75 CNS
SR leukemia = test system: SR leukemia
T-47D breast = test system: T-47D breast
TK-10 renal = test system: TK-10 renal
U251 glioblastoma = test system: U251 glioblastoma
UACC-257 melanoma = test system: UACC-257 melanoma
UACC-62 melanoma = test system: UACC-62 melanoma

O=c1[nH]cnc2[nH]ncc12
GI50 (CAKI-1 renal): 36800 nM | GI50 (HL-60(TB) leukemia): 74500 nM | GI50 (MDA-MB-468 breast): 85200 nM | GI50 (NCI-H23 lung): 98400 nM | GI50 (RPMI-8226 leukemia): 24000 nM | TGI (RPMI-8226 leukemia): 60900 nM

CC(=O)O/N=C1/C(c2c(O)[nH]c3cc(Br)ccc23)=Nc2ccccc21
GI50 (A498 renal): 182 nM | TGI (A498 renal): 496 nM | GI50 (A549 NSCLC): 1460 nM | TGI (A549 NSCLC): 2840 nM | GI50 (ACHN renal): 472 nM | TGI (ACHN renal): 1660 nM | GI50 (BT-549 breast): 574 nM | TGI (BT-549 breast): 1910 nM | GI50 (CAKI-1 renal): 675 nM | TGI (CAKI-1 renal): 1970 nM | GI50 (COLO 205 colon): 1270 nM | TGI (COLO 205 colon): 2530 nM | GI50 (DU-145 prostate): 1050 nM | TGI (DU-145 prostate): 2290 nM | GI50 (EKVX NSCLC): 505 nM | TGI (EKVX NSCLC): 2030 nM | GI50 (HCC-2998 colon): 540 nM | TGI (HCC-2998 colon): 1980 nM | GI50 (HCT-116 colon): 1030 nM | TGI (HCT-116 colon): 2230 nM | GI50 (HCT-15 colon): 686 nM | TGI (HCT-15 colon): 1950 nM | GI50 (HL-60(TB) leukemia): 495 nM | TGI (HL-60(TB) leukemia): 1150 nM | GI50 (HOP-62 NSCLC): 1070 nM | TGI (HOP-62 NSCLC): 2260 nM | GI50 (HOP-92 NSCLC): 1250 nM | TGI (HOP-92 NSCLC): 2650 nM | GI50 (HS 578T breast): 215 nM | TGI (HS 578T breast): 860 nM | GI50 (HT29 colon): 1460 nM | TGI (HT29 colon): 2800 nM | GI50 (IGROV1 ovarian): 157 nM | TGI (IGROV1 ovarian): 1350 nM | GI50 (KM12 colon): 532 nM | TGI (KM12 colon): 2010 nM | GI50 (LOX IMVI melanoma): 1110 nM | TGI (LOX IMVI melanoma): 2310 nM | GI50 (M14 melanoma): 1610 nM | TGI (M14 melanoma): 2970 nM | GI50 (MALME-3M melanoma): 1990 nM | TGI (MALME-3M melanoma): 4240 nM | GI50 (MCF7 breast): 582 nM | TGI (MCF7 breast): 2370 nM | GI50 (MDA-MB-231 breast): 1300 nM | TGI (MDA-MB-231 breast): 2650 nM | GI50 (MDA-MB-435 melanoma): 1340 nM | TGI (MDA-MB-435 melanoma): 2630 nM | GI50 (MDA-MB-468 breast): 1320 nM | TGI (MDA-MB-468 breast): 2610 nM | GI50 (MOLT-4 leukemia): 1900 nM | TGI (MOLT-4 leukemia): 3320 nM | GI50 (NCI-H226 lung): 257 nM | TGI (NCI-H226 lung): 1080 nM | GI50 (NCI-H23 lung): 1470 nM | TGI (NCI-H23 lung): 2860 nM | GI50 (NCI-H322M lung): 727 nM | TGI (NCI-H322M lung): 2010 nM | GI50 (NCI-H460 NSCLC): 798 nM | TGI (NCI-H460 NSCLC): 2070 nM | GI50 (NCI-H522 lung): 1480 nM | TGI (NCI-H522 lung): 2810 nM | GI50 (NCI/ADR-RES ovarian): 1240 nM | TGI (NCI/ADR-RES ovarian): 2520 nM | GI50 (OVCAR-3 ovarian): 186 nM | TGI (OVCAR-3 ovarian): 946 nM | GI50 (OVCAR-4 ovarian): 1250 nM | TGI (OVCAR-4 ovarian): 2540 nM | GI50 (OVCAR-5 ovarian): 1980 nM | TGI (OVCAR-5 ovarian): 3400 nM | GI50 (OVCAR-8 ovarian): 1100 nM | TGI (OVCAR-8 ovarian): 2310 nM | GI50 (PC-3 prostate): 462 nM | TGI (PC-3 prostate): 1780 nM | GI50 (RPMI-8226 leukemia): 685 nM | TGI (RPMI-8226 leukemia): 1860 nM | GI50 (RXF 393 renal): 1010 nM | TGI (RXF 393 renal): 2220 nM | GI50 (SF-268 CNS): 1050 nM | TGI (SF-268 CNS): 2250 nM | GI50 (SF-295 CNS): 1000 nM | TGI (SF-295 CNS): 2320 nM | GI50 (SF-539 CNS): 505 nM | TGI (SF-539 CNS): 1690 nM | GI50 (SK-MEL-28 melanoma): 1670 nM | TGI (SK-MEL-28 melanoma): 3070 nM | GI50 (SK-MEL-5 melanoma): 312 nM | TGI (SK-MEL-5 melanoma): 1660 nM | GI50 (SK-OV-3 ovarian): 275 nM | TGI (SK-OV-3 ovarian): 1330 nM | GI50 (SN12C renal): 53.8 nM | TGI (SN12C renal): 710 nM | GI50 (SNB-19 CNS): 1470 nM | TGI (SNB-19 CNS): 2870 nM | GI50 (SNB-75 CNS): 554 nM | TGI (SNB-75 CNS): 2040 nM | GI50 (SR leukemia): 1140 nM | TGI (SR leukemia): 2350 nM | GI50 (T-47D breast): 1760 nM | TGI (T-47D breast): 3230 nM | GI50 (TK-10 renal): 356 nM | TGI (TK-10 renal): 1590 nM | GI50 (U251 glioblastoma): 1080 nM | TGI (U251 glioblastoma): 2280 nM | GI50 (UACC-257 melanoma): 1720 nM | TGI (UACC-257 melanoma): 3100 nM | GI50 (UACC-62 melanoma): 636 nM | TGI (UACC-62 melanoma): 1890 nM
